Laboratory results from PMC7870638, “Toxicity of anticancer drugs in human placental tissue explants and trophoblast cell lines” (Archives of Toxicology, 2020).

Columns and labels:
[1] = system: placental villous explants; test: MTT assay in placental explants (tissue viability); type: cell-based, human; conditions: 72 h exposure, 1, 10 or 100 µM
Experimental: (§1) Term placentas, obtained from consenting women following uncomplicated pregnancies and delivered vaginally or by caesarean section, were used for all experiments. Approval of the Regional Committee on Research involving Human Subjects was obtained (File 2014-1397). Within 60 min after delivery, 1 cm^3 villous tissue samples were excised at random areas midway between the umbilical cord and distal edge of the placenta. To remove maternal blood, samples were carefully rinsed in sterile Dulbecco’s phosphate-buffered saline supplemented with calcium chloride and magnesium chloride (Sigma-Aldrich, St. Louis, MO, USA) which was kept at 37 °C. The villous tissue was cut into small pieces weighing approximately 5 mg, after which 4–6 pieces of tissue were cultured together in individual wells of a 6-well plate. The explants were cultured in 1.5 ml of RPMI-1640 culture medium (Gibco, USA) with 15% heat-inactivated fetal bovine serum, 1% penicillin streptomycin, 1% gentamicin, and 1% amphotericin B (Life Technologies, USA). Placental explant cultures were kept for 7 days at 37 °C in a humidified gas mixture of 5% CO2 and 95% air. The culture medium was renewed every 24 h.
(§2) Treatment with TKIs or cytostatic drugs was started at day four of culture to allow for the syncytiotrophoblasts to regenerate (Siman et al. [2001]). Explants were then incubated for 72 h with 1, 10 or 100 µM of all TKIs or cytostatic drugs mentioned above. […] Culture medium was replaced every 24 h with new medium containing the original concentration of the drug. Supernatant was collected each day and stored at − 20 °C for hormone quantification.
(§3) To evaluate tissue and cell viability, after 72 h of drug exposure, tissue explants were incubated for 4 h at 37 °C with 1 mM 3-(4,5-dimethylthiazol-2-yl)-[…] (MTT) in RPMI. After incubation, the medium was removed, the tissue in each well was weighed, and the explants were subsequently placed in 500 µL DMSO for 10 min to dissolve the formazan formed. After 10 min, the DMSO was transferred to a 96-well plate and absorbance was measured at 540 nm using a Biorad Multiwell Plate reader.
(§4) Construction of graphs and data analysis were performed using Graphpad Prism version 8.4.2. MTT conversion and progesterone and estrone release in placental explants were normalized to tissue wet weight. To compare the effects on tissue viability and cell viability, the data were normalized to control conditions and mean differences were tested using an unpaired t test, a one-way ANOVA, or a two-way repeated measures ANOVA. The change in progesterone release rate as compared to the baseline (at 0 h) was calculated for each well separately, after which data were normalized to control conditions. One-way ANOVA was used to assess effects at the 72 h time point only. The Bonferroni post hoc test was applied to compare treatment conditions with controls. Data are described as mean ± SD in Figs. 2 and 3 and as mean ± SEM in all other figures where comparisons of means between groups were made. The mean and SD or SEM were calculated from all individual results (three experiments performed in duplicate or triplicate wells, n = 6 or n = 9).

[2] = system: isolated third trimester primary trophoblasts; design: method as in Berveiller et al. [2018]; conditions: ref Berveiller et al. [2018], read-out: concentration giving 50% reduction in cell viability; cited from earlier work
[3] = system: undifferentiated BeWo cells; test: MTT assay, cell viability in undifferentiated BeWo cells; type: cell-based; conditions: Homo sapiens, 48 h exposure, read-out: concentration giving 50% reduction in cell viability
Experimental: (§5) Two human choriocarcinoma-derived placental cell lines were used: JEG3 and BeWo (ATCC catalog numbers HTB-36 and CCL-98, respectively). JEG3 cells were cultured in DMEM and Bewo cells in Ham’s F-12 K medium, supplemented with 10% fetal calf serum and 1% penicillin and streptomycin under a humidified 5% CO2/95% air atmosphere at 37 °C. Cells were passaged (JEG3: 1:10 twice a week; BeWo: 1:3 once a week) after trypsinization with 0.05% Trypsin–EDTA when cells reached approximately 80% confluency. For BeWo cells, the medium was renewed 3 times a week. To create syncytialised BeWo cells, regular BeWo cells were treated with 50 μM forskolin (Sigma-Aldrich, St. Louis, MO, USA) in 0.1% DMSO, to initiate syncytialisation. As forskolin increases the intracellular cAMP levels, it activates protein kinase A after which syncytialisation and fusion of trophoblasts occurs (Orendi et al. [2010]).
The cells were seeded in 96-well culture plates at a cell density of 1 × 10^4 cells/well and cultured for 24 h at 37 °C in a humidified atmosphere with 5% CO2 to allow for attachment. Subsequently, the cells were exposed to the TKIs and cytostatic drugs in concentrations ranging from 100 pM to 100 µM (triplicate). […] The absorbance of formazan was measured at 540 nm by a Biorad Multiwell Plate reader.

[4] = design: method as in Berveiller et al. [2018]; conditions: in vivo; ref Berveiller et al. [2018]; cited from earlier work
[5] = system: JEG-3, BeWo, and syncytialised BeWo cells; test: MTT assay, cell viability in all three trophoblast cell types; type: cell-based, human
Experimental: as §5
The cells were seeded in 96-well culture plates at a cell density of 1 × 10^4 cells/well and cultured for 24 h at 37 °C in a humidified atmosphere with 5% CO2 to allow for attachment. Subsequently, the cells were exposed to the TKIs and cytostatic drugs in concentrations ranging from 100 pM to 100 µM (triplicate). […] This is a minimum percentage DMSO, but required as cells required co-incubation with forskolin to syncytialise. Crizotinib 100 μM was used as positive control. After attachment, cells were incubated with the compounds for 48 h, after which the medium was removed and the cells were exposed to […] diluted in medium. After 3 h of incubation with MTT, the formazan crystals formed were solubilized in 50 μL DMSO. The absorbance of formazan was measured at 540 nm by a Biorad Multiwell Plate reader.

[6] = system: syncytialised BeWo cells; type: cell-based, human; conditions: 48 h exposure
Experimental: The cells were seeded in 96-well culture plates at a cell density of 1 × 10^4 cells/well and cultured for 24 h at 37 °C in a humidified atmosphere with 5% CO2 to allow for attachment. Subsequently, the cells were exposed to the TKIs and cytostatic drugs in concentrations ranging from 100 pM to 100 µM (triplicate). […] This is a minimum percentage DMSO, but required as cells required co-incubation with forskolin to syncytialise. Crizotinib 100 μM was used as positive control. […] The absorbance of formazan was measured at 540 nm by a Biorad Multiwell Plate reader.

[7] = system: progesterone release in syncytialised BeWo cells; test: Steroidogenesis (progesterone release) in syncytialised BeWo cells; type: cell-based, human; conditions: 48 h, crizotinib 1 μM, paclitaxel 3 nM, cisplatin 100 μM, carboplatin 100 μM, not statistically significant
Experimental: as §5
For doxorubicin, only two concentrations were tested. Conditioned medium, containing the secreted hormones, was collected after 48 h exposure to the TKIs and cytostatic drugs and stored at − 80 °C until analysis. To eliminate the influence of the varying cell densities between the wells, total protein content in each well was measured. Cells were washed twice with Hank’s buffered Salt Solution (HBSS) and lysed with 50 μL 1 M sodium hydroxide (NaOH). Subsequently, 10 μL of the lysate was mixed with 190 μL of 5 times diluted dye reagent (Biorad protein assay). The absorbance was measured at 595 nm using a Biorad Multiwell Plate reader. The quantities of protein in the samples were determined via a calibration curve of bovine serum albumin.
(§6) Progesterone and estrone concentrations in culture medium were determined by LC–MS/MS analysis using an Acquity UPLC (Waters, Milford, MA, USA) equipped with a C18 UPLC column (Acquity UPLC BEH C18, 2.1 × 50 mm, Milford, MA, USA, Waters) coupled to a Xevo TQ-S (Waters) triple quadrupole mass spectrometer. Progesterone-D9 was used as internal standard and calibration curves were made in the matrix. To precipitate proteins, methanol containing the internal standard was added to culture medium samples in a ratio 3:1 (MeOH:medium). Following subsequent centrifugation (13,000g for 3 min), 1 μl of the clear supernatant was injected into the LC–MS to quantify progesterone and estrone. Solvent A consisted of 0.2 mM NH4F in water and solvent B consisted of 0.2 mM NH4F in Acetonitrile:Methanol in a ratio of 75:25%. Separation was performed at a flow rate of 350 µl/min under the following gradient conditions: 0 min 60% eluent A, 3.0 min 0% eluent A, 4 min 0% eluent A, 5 min 60% eluent A. The effluent from the UPLC was passed directly into the electrospray ion source. Positive electrospray ionization was achieved using nitrogen as a desolation gas with ionization voltage at 600 V. The source temperature was set at 500 °C and argon was used as collision gas. The following SRM transitions were used: m/z 315.10 (parent ion) to m/z 69.9 and m/z 108.9 (both product ions) for progesterone, m/z 269.0 (parent ion) to m/z 144.9 and 158.9 (product ions) for estrone, and m/z 324.2 (parent ion) to m/z 99.9 and m/z 112.9 (product ions) for the internal standard d9-progesterone. We also attempted to quantify estradiol and estriol levels in the culture medium of both explants and cells, but these were below the detection limit.

[8] = MTT assay in placental explants (tissue viability); type: cell-based, human; conditions: female, human, term placental villous tissue explants, 72 h exposure
Experimental: as §1, §2, §3, §4

[9] = system: progesterone and estrone release in placental explants; test: Steroid (progesterone, estrone) release in placental explants, LC-MS/MS of culture medium; type: cell-based, human; conditions: placental explants, 1, 10 and 100 µM, after 24 h
Experimental: as §1
Treatment with TKIs or cytostatic drugs was started at day four of culture to allow for the syncytiotrophoblasts to regenerate (Siman et al. [2001]). Explants were then incubated for 72 h with 1, 10 or 100 µM of all TKIs or cytostatic drugs mentioned above. […] For cisplatin and carboplatin, culture medium was used as a solvent. Culture medium was replaced every 24 h with new medium containing the original concentration of the drug. Supernatant was collected each day and stored at − 20 °C for hormone quantification.
as §6
Construction of graphs and data analysis were performed using Graphpad Prism version 8.4.2. MTT conversion and progesterone and estrone release in placental explants were normalized to tissue wet weight. To compare the effects on tissue viability and cell viability, the data were normalized to control conditions and mean differences were tested using an unpaired t test, a one-way ANOVA, or a two-way repeated measures ANOVA. […]

[10] = system: BeWo cells; design: method as in Soininen et al. [2015]; conditions: after 4 h of exposure, ref Soininen et al. [2015], read-out: IC50 cell viability; cited from earlier work
[11] = design: method as in Berveiller and Mir [2012]; Soininen et al. [2015]; conditions: ref Berveiller and Mir [2012]; Soininen et al. [2015]; cited from earlier work

SMILES: CC(=O)O[C@H]1C(=O)[C@@]2(C)[C@H]([C@H](OC(=O)c3ccccc3)[C@]3(O)C[C@H](OC(=O)[C@H](O)[C@@H](NC(=O)c4ccccc4)c4ccccc4)C(C)=C1C3(C)C)[C@]1(OC(C)=O)CO[C@@H]1C[C@@H]2O [paclitaxel]
- effect on tissue viability (in words) [1]: moderately affected tissue viability, but this was not statistically significant
- IC50 [2]: 18 to 180 nM
- IC50 [3]: 1 to 3 nM
- concentration in placental tissue compared to maternal levels at delivery [4]: ten-fold higher
- IC50 ([5]; Homo sapiens, all cell types (JEG-3, BeWo, syncytialised BeWo), 48 h exposure, read-out: concentration at which cell viability was reduced to 50% or less): 3 to 10 nM
- cytotoxicity in syncytialised BeWo cells compared to undifferentiated BeWo and JEG3 cells (in words) [6]: consistently less cytotoxic in syncytialised BeWo cells
- progesterone release (in words) [7]: slight induction of progesterone release

SMILES: COc1cccc2c1C(=O)c1c(O)c3c(c(O)c1C2=O)C[C@@](O)(C(=O)CO)C[C@@H]3O[C@H]1C[C@H](N)[C@H](O)[C@H](C)O1 [doxorubicin]
- viability at 72 h, 1 µM ([8]; 1 µM, read-out: viability in explants, % of control values): 83 ± 7%
- viability at 72 h, 100 µM ([8]; 100 µM, mean ± SEM, read-out: tissue viability, % of control): 14 ± 2%
- progesterone production (in words) [9]: induced progesterone production
- potency on viability in cells relative to explants (times more potent) ([5]; all cell types (48 h) versus placental explants (72 h)): approximately 10 times
- effect on viability (in words) ([5]; all cell types, 1 µM, 48 h exposure): fully inhibited viability in all cell types
- IC50 [10]: 600 nM
- uptake in ex vivo perfused placental tissue, % of initial maternal concentrations [11]: 38–70%
